Experimental data: the supplement of paper PMC10307832

Columns and labels:
Experiment in all cases: relative viability (nuclei count vs DMSO), 5 days (fraction); higher = more cells survive
MK-2206 + Bortezomib = compound: NC1(c2ccc(-c3nc4ccn5c(=O)[nH]nc5c4cc3-c3ccccc3)cc2)CCC1 [MK-2206] + CC(C)C[C@H](NC(=O)[C@H](Cc1ccccc1)NC(=O)c1cnccn1)B(O)O [Bortezomib] (partner 0.002 µM)
In short: (§1)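 Values are medians from duplicate plates. Each reflects relative viability, defined as the nuclei count of treated wells over that of vehicle wells. Lung cancer cell lines in 1536-well plates were pin-tool dosed one day after seeding with one drug alone or with a fixed anchor-drug dose plus five library-drug doses (not always all listed) in √10 steps, then fixed, stained and imaged at 4× after 5 days.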

Pictilisib + Vorinostat = compound: CS(=O)(=O)N1CCN(Cc2cc3nc(-c4cccc5[nH]ncc45)nc(N4CCOCC4)c3s2)CC1 [Pictilisib] + O=C(CCCCCCC(=O)Nc1ccccc1)NO [Vorinostat] (partner 1 µM)
In short: as §1

MK-2206 + Olaparib = compound: NC1(c2ccc(-c3nc4ccn5c(=O)[nH]nc5c4cc3-c3ccccc3)cc2)CCC1 [MK-2206] + O=C(c1cc(Cc2n[nH]c(=O)c3ccccc23)ccc1F)N1CCN(C(=O)C2CC2)CC1 [Olaparib] (partner 8 µM)
In short: as §1

MK-2206 + Lapatinib = compound: NC1(c2ccc(-c3nc4ccn5c(=O)[nH]nc5c4cc3-c3ccccc3)cc2)CCC1 [MK-2206] + CS(=O)(=O)CCNCc1ccc(-c2ccc3ncnc(Nc4ccc(OCc5cccc(F)c5)c(Cl)c4)c3c2)o1 [Lapatinib] (partner 2 µM)
In short: as §1

Pictilisib + Crizotinib = compound: CS(=O)(=O)N1CCN(Cc2cc3nc(-c4cccc5[nH]ncc45)nc(N4CCOCC4)c3s2)CC1 [Pictilisib] + C[C@@H](Oc1cc(-c2cnn(C3CCNCC3)c2)cnc1N)c1c(Cl)ccc(F)c1Cl [Crizotinib] (partner 1 µM)
In short: as §1

UMC-11
relative viability (MK-2206 + Bortezomib; first compound 0.01 µM): 0.668 | relative viability (MK-2206 + Bortezomib; first compound 0.03162 µM): 0.793 | relative viability (MK-2206 + Bortezomib; first compound 0.3162 µM): 0.852 | relative viability (MK-2206 + Bortezomib; first compound 1 µM): 0.389 | relative viability (Pictilisib + Vorinostat; first compound 0.02 µM): 0.366 | relative viability (Pictilisib + Vorinostat; first compound 0.06325 µM): 0.414 | relative viability (Pictilisib + Vorinostat; first compound 0.6325 µM): 0.464 | relative viability (Pictilisib + Vorinostat; first compound 2 µM): 0.354 | relative viability (MK-2206 + Olaparib; first compound 0.01 µM): 0.52 | relative viability (MK-2206 + Olaparib; first compound 0.03162 µM): 1.16 | relative viability (MK-2206 + Olaparib; first compound 0.3162 µM): 0.381 | relative viability (MK-2206 + Olaparib; first compound 1 µM): 0.363 | relative viability (MK-2206 + Lapatinib; first compound 0.01 µM): 1.27 | relative viability (MK-2206 + Lapatinib; first compound 0.03162 µM): 1.1 | relative viability (MK-2206 + Lapatinib; first compound 0.3162 µM): 0.99 | relative viability (MK-2206 + Lapatinib; first compound 1 µM): 0.941 | relative viability (Pictilisib + Crizotinib; first compound 0.02 µM): 0.633 | relative viability (Pictilisib + Crizotinib; first compound 0.06325 µM): 0.887 | relative viability (Pictilisib + Crizotinib; first compound 0.6325 µM): 0.733 | relative viability (Pictilisib + Crizotinib; first compound 2 µM): 0.58
